As usually defined, the IC50 is the midpoint of a concentration-inhibition curve. High values mean lower potency, low ones higher potency. A word on the MIC: it is the least concentration at which growth counts as inhibited. Higher therefore signals a less susceptible organism. For orientation: MIC50 means an inhibitory concentration at the 50% level, which refers to growth in some studies and to a panel of isolates in others. Low values mean greater potency, high ones weaker potency.

For test [1], the target named is T1, Phospho-N-acetylmuramoyl-pentapeptide-transferase (Aquifex aeolicus (strain VF5), UniProt O66465).
T1 sequence (O66465 whole entry): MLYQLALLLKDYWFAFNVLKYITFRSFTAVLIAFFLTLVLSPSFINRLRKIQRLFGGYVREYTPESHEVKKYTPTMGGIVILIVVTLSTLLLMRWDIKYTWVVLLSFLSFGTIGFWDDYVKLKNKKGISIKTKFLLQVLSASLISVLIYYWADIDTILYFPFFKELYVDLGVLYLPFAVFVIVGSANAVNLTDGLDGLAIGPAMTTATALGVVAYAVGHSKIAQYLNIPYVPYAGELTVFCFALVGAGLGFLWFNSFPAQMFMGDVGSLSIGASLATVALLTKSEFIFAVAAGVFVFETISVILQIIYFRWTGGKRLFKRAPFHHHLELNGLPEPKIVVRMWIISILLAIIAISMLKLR
Briefly: Inhibition of MraY in Aquifex aeolicus.

Test [2] relates to Escherichia coli. Briefly: Antibacterial activity against Escherichia coli expressing MraY. The test is classed as functional, organism-based.
In test [3] the test system is Mycolicibacterium phlei. The experiment in a line: Antibacterial activity against Mycobacterium phlei. The format is functional.
For test [4], the system named is Staphylococcus aureus. The experiment in a line: Antibacterial activity against methicillin resistant Staphylococcus aureus No. 5. The format is functional.
Test [5] has as its system Mycolicibacterium smegmatis. The experiment in a line: Antibacterial activity against Mycobacterium smegmatis ATCC 607. The format is functional.
Test [6] deals with Bacillus subtilis. Briefly: Antibacterial activity against Bacillus subtilis PCI 219. The test is classed as functional.
For test [7], the system named is Mycobacterium tuberculosis. Briefly: Antibacterial activity against Mycobacterium tuberculosis JCM 6384. The test is classed as functional.
Test [8] relates to Escherichia coli. Briefly: Antibacterial activity against Escherichia coli K-12. The format is functional.
The test system of test [9] is Mycobacterium avium subsp. paratuberculosis. Briefly: Antibacterial activity against Mycobacterium avium subsp. paratuberculosis ATCC 43015. The test is classed as functional.
For test [10], the system named is Staphylococcus aureus. The experiment in a line: Antibacterial activity against methicillin resistant Staphylococcus aureus MS16526. The test is classed as functional.
Test [11] concerns Mycobacterium tuberculosis. The experiment in a line: Antibacterial activity against Mycobacterium tuberculosis H37Rv. The test is classed as functional.
Test [12] concerns Staphylococcus aureus. The experiment in a line: Antibacterial activity against Staphylococcus aureus FDA 209P. The format is functional.
For test [13], the system named is Mycobacterium tuberculosis. The experiment in a line: Antibacterial activity against Mycobacterium tuberculosis Kurono. The test is classed as functional.
In test [14] the test system is Mycolicibacterium vaccae. The experiment in a line: Antibacterial activity against Mycobacterium vaccae ATCC 15483. The test is classed as functional.
Test [15] is described as follows: Antibacterial activity against Mycobacterium avium subsp. avium ATCC 25291. The format is functional.
The subject of test [16] is Enterococcus faecalis. Briefly: Antibacterial activity against Enterococcus faecalis SR7914 (VRE). The format is functional.
The subject of test [17] is Staphylococcus aureus. Briefly: Antibacterial activity against methicillin resistant Staphylococcus aureus SR3637. The format is functional.
Test [18] relates to Staphylococcus aureus. Briefly: Antibacterial activity against methicillin susceptible Staphylococcus aureus ATCC 29213. The test is classed as functional.
In test [19] the test system is Enterococcus faecalis. The experiment in a line: Antibacterial activity against Enterococcus faecalis ATCC 29212. The format is functional.
Test [20] relates to Enterococcus faecium. The experiment in a line: Antibacterial activity against Enterococcus faecium SR7917 (VRE). The format is functional.

Values after ≈ are worked out from the molar mass of the structure shown. Where only a bound is given, the exact number is not on record here.

In test [1], `NC[C@H]1O[C@@H](O[C@@H](Cn2cc(CCCCCCCCCCO)nn2)[C@H]2O[C@@H](n3ccc(=O)[nH]c3=O)[C@H](O)[C@@H]2O)[C@H](O)[C@@H]1O` showed an IC50 of 75 µM.
`CCNC[C@H]1O[C@@H](OC[C@H]2O[C@@H](n3ccc(=O)[nH]c3=O)[C@H](O)[C@@H]2O)[C@H](O)[C@@H]1O` returned an IC50 in test [2] of 150 µM.
In test [2], `CC(C)NC[C@H]1O[C@@H](OC[C@H]2O[C@@H](n3ccc(=O)[nH]c3=O)[C@H](O)[C@@H]2O)[C@H](O)[C@@H]1O` yielded an IC50 of 180 µM.
The same measure, in the same setting: as for `C[N+](C)(C)C[C@H]1O[C@@H](OC[C@H]2O[C@@H](n3ccc(=O)[nH]c3=O)[C@H](O)[C@@H]2O)[C@H](O)[C@@H]1O`, the figure is more than 1000 µM.
In turn, `NC[C@H]1O[C@@H](O[C@@H](Cc2cn(CCCCCCCCCCOc3ccc(C(=O)c4ccccc4)cc3)nn2)[C@H]2O[C@@H](n3ccc(=O)[nH]c3=O)[C@H](O)[C@@H]2O)[C@H](O)[C@@H]1O` showed an IC50 in [1] of 25 µM.
Still for that read-out and setting: as for `NC[C@H]1O[C@@H](O[C@@H](Cn2cc(Cc3ccc(COc4ccc(C(=O)c5ccccc5)cc4)cc3)nn2)[C@H]2O[C@@H](n3ccc(=O)[nH]c3=O)[C@H](O)[C@@H]2O)[C@H](O)[C@@H]1O`, the figure is 100 µM.
In test [2], `NC[C@H]1O[C@@H](OC[C@H]2O[C@@H](n3ccc(=O)[nH]c3=O)C[C@@H]2O)[C@H](O)[C@@H]1O` came in with an IC50 of 80 µM. That is a double-digit micromolar value.
In [1], `NC[C@H]1O[C@@H](O[C@@H](Cc2cn(CCCCCCCCCCO)nn2)[C@H]2O[C@@H](n3ccc(=O)[nH]c3=O)[C@H](O)[C@@H]2O)[C@H](O)[C@@H]1O` came in with an IC50 of 40 µM.
`CCCCOc1ccc(NC(=O)C2=CCN(C)[C@@H]([C@H](O[C@@H]3O[C@H](CN)[C@@H](O)[C@H]3O)[C@H]3O[C@@H](n4ccc(=O)[nH]c4=O)[C@H](O)[C@@H]3O)C(=O)N2C)cc1`: the MIC was more than 100 mg/L in test [3]; more than 100 mg/L in test [4]; 25 mg/L (≈ 35.5 µM) in test [5]; more than 100 mg/L in test [6]; 0.78 mg/L (≈ 1.11 µM) in test [7]; more than 100 mg/L in test [8]. For the same molecule, the MIC in test [9] was 0.78 mg/L (≈ 1.11 µM); in [10], 3.13 mg/L (≈ 4.44 µM); in test [11], 1.56 mg/L (≈ 2.21 µM); in [12] it was more than 100 mg/L; in test [13] it was 3.13 mg/L (≈ 4.44 µM); in [14], 100 mg/L (≈ 142 µM). The molecule also showed an MIC in [15] of 3.13 mg/L (≈ 4.44 µM).
The molecule `NC[C@H]1O[C@@H](O[C@@H](Cc2cn(CCOCCOCCOCCOCCO)nn2)[C@H]2O[C@@H](n3ccc(=O)[nH]c3=O)[C@H](O)[C@@H]2O)[C@H](O)[C@@H]1O` had an IC50 in test [1] of 750 µM.
`NC[C@H]1O[C@@H](O[C@H](CO)[C@H]2O[C@@H](n3ccc(=O)[nH]c3=O)[C@H](O)[C@@H]2O)[C@H](O)[C@@H]1O` displayed an IC50 in test [2] of 425 µM.
As for `CCCCCCCCCCCCCCCC(=O)NC[C@@H]1CC[C@H]2C(C(=O)N1CCCNC(=N)N)[C@H]([C@H]1O[C@@H](n3ccc(=O)[nH]c3=O)[C@H](O)[C@@H]1O)ON2CCCN` (single isomer, unassigned), the MIC in test [16] is 16 mg/L (≈ 20.2 µM); in test [17], 16 mg/L (≈ 20.2 µM); in [18] it was more than 64 mg/L; in test [19], 16 mg/L (≈ 20.2 µM); in test [20] it was 16 mg/L (≈ 20.2 µM).
With `N/C=N/C[C@H]1O[C@@H](OC[C@H]2O[C@@H](n3ccc(=O)[nH]c3=O)[C@H](O)[C@@H]2O)[C@H](O)[C@@H]1O`, in test [2], the IC50 was determined as 30 µM.
Same read-out and setting: then `NC[C@H]1O[C@@H](OC[C@H]2O[C@@H](n3ccc(=O)[nH]c3=O)[C@H](O)[C@@H]2O)C[C@@H]1O`, with 115 µM.
Turning to `CCCCCCCCCCCCCCc1ccc(NC(=O)C2=CCN(C)[C@@H]([C@H](O[C@@H]3O[C@H](CN)[C@@H](O)[C@H]3O)[C@H]3O[C@@H](n4ccc(=O)[nH]c4=O)[C@H](O)[C@@H]3O)C(=O)N2C)cc1`, the MIC in test [3] is 3.13 mg/L (≈ 3.78 µM); in [4], 12.5 mg/L (≈ 15.1 µM); in test [5], 6.25 mg/L (≈ 7.54 µM); in test [6], more than 100 mg/L; in [7] it was 0.78 mg/L (≈ 0.941 µM); in [8], more than 100 mg/L. For the same molecule, the MIC was determined as 0.39 mg/L (≈ 0.47 µM) in [9]; 0.39 mg/L (≈ 0.47 µM) in test [10]; 3.13 mg/L (≈ 3.78 µM) in test [11]; 12.5 mg/L (≈ 15.1 µM) in test [12]; 3.13 mg/L (≈ 3.78 µM) in test [13]; 6.25 mg/L (≈ 7.54 µM) in test [14]. Moreover, in test [15], the MIC was 6.25 mg/L (≈ 7.54 µM).
In the case of `CCCCCCCCCCCCCCCC(=O)O[C@H]1CN(C)[C@@H]([C@H](O)[C@H]2O[C@@H](n3ccc(=O)[nH]c3=O)[C@H](O)[C@@H]2O)C(=O)N(C)[C@@H]1C(=O)O`, in test [2], the MIC50 was more than 100 mg/L.
In [1], `NCCCCCCCCCn1cc(C[C@H](O[C@@H]2O[C@H](CN)[C@@H](O)[C@H]2O)[C@H]2O[C@@H](n3ccc(=O)[nH]c3=O)[C@H](O)[C@@H]2O)nn1` returned an IC50 of 200 µM.

(Values after ChEMBL document CHEMBL4402510, “Caprazamycins: Promising lead structures acting on a novel antibacterial target MraY” (Eur J Med Chem, 2019).)
